How the values were obtained:
[1] = test system: phosphorylated TANK-binding kinase 1 (pTBK1); experiment: UVB-induced pTBK1 in HaCaT cells (ELISA); assay type: cell-based
Experimental: pTBK1 is an important signaling molecule in regulating inflammatory responses. HaCaT cells were plated in 6-well plates at a density of ˜100 k/well in HaCaT media (DMEM, optimized 1×(Addex Bio)^+1% pen strep (Gibco)^+5% heat inactivated fetal bovine serum (Gibco)). The cells were then cultured at 37° C. overnight. The next day, the cells were treated with the test compounds. Each test compound was diluted and added to media aliquots to provide desired concentrations. To add the test compound+media mixture, an equivalent amount of media from each well was aspirated and then replenished with the media dosed with the test compound. The cells were then cultured for an additional 72 hours with compound treatment prior to UVB exposure.
The media was then aspirated from the wells, with the remaining cells at least 80% confluent in each well. One mL of PBS was then added to each well, and the plate was then placed under a UVB lamp. A UVB sensor was positioned near the plate to register the plate's exposure. The cells were exposed to the UVB light until they reached 0.1 mJ/cm2. […]
A RIPA lysis buffer (#BP-115, Boston BioProducts) was added to a Halt protease and […] inhibitor cocktail (#78440, ThermoFisher), and the mixture was cooled on ice. […] The protein concentration of the cell lysate was measured using Pierce™ Rapid Gold BCA Protein Assay Kit #AF3225 (ThermoFisher). […]

[2] = target: T1, LINE1 reverse transcriptase (Homo sapiens, UniProt O00370); experiment: Stable artificial-intron Cis LINE1 reporter assay (HeLa Tet-On 3G, Firefly luciferase); assay type: cell-based; conditions: HeLa L1 artificial-intron reporter cells, doxycycline 500 ng/mL, 72 h, class symbols
T1 construct: expressed in transfected cells; host or cells: HeLa Tet-On 3G (Takara, cat no 631183)
T1 sequence (O00370 whole entry, looked up): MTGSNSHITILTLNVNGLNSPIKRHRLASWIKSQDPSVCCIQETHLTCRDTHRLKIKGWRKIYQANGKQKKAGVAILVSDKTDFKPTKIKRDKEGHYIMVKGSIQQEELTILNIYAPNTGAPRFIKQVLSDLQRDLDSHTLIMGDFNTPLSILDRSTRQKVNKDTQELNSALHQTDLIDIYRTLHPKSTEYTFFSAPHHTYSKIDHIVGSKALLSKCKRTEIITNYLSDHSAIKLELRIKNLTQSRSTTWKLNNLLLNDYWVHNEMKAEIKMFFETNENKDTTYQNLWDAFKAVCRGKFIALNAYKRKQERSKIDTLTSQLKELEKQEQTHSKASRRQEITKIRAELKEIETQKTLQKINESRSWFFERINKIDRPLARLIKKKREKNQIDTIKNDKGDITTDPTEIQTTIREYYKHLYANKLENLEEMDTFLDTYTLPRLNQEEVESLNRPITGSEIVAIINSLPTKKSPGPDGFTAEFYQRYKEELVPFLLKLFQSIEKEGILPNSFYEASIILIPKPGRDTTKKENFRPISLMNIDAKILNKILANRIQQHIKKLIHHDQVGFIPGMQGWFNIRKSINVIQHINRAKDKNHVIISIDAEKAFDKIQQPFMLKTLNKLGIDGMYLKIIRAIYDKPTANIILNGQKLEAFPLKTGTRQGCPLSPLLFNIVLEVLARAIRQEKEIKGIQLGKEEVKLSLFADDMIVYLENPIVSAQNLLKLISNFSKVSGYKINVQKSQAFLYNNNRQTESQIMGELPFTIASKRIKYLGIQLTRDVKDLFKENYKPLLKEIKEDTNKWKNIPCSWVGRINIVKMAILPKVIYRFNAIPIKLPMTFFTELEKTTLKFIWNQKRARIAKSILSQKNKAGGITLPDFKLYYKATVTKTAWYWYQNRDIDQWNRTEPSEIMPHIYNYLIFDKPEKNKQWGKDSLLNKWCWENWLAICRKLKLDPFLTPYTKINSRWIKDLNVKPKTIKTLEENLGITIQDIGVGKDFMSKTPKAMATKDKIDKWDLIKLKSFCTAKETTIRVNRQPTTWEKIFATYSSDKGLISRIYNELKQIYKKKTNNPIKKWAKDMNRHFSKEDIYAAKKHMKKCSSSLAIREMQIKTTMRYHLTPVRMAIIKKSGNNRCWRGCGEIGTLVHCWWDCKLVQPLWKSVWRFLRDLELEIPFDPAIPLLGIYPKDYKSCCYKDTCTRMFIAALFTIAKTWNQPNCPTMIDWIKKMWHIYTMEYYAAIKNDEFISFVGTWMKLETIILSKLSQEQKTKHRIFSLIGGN
Outline: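 HeLa Tet-On 3G clone stably carrying a bi-directional doxycycline-inducible artificial-intron LINE1 reporter, plated at 8,000 cells/well onto serially diluted compound. Expression induced with 500 ng/mL doxycycline (final); Firefly luciferase luminescence (Dual-Glo) read 72 h after plating as LINE1 activity.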

[3] = test system: THP1-Dual KO-TREX1 xenograft tumors; experiment: Altering IFN production in THP1-Dual KO-TREX1 mouse xenografts (Compound 67); assay type: in vivo; conditions: CB-17 SCID mice, decitabine 5 mg/kg SC, compound 0.3-100 mg/kg PO once daily 5 days, tumors 4 h post-last dose
Experimental: Exemplary Compound 67 was tested for its ability to alter IFN levels in THP1-Dual™ KO-TREX1 xenografts in mice. Assay procedures are described below.
CB-17 SCID female mice were inoculated subcutaneously with 10 million THP1-Dual™ KO-TREX1 cells in 200 μl PBS with Matrigel (1:1) and grouped at N=5 per treatment per sampling timepoint when tumor volume reached an average of 340 mm^3. Six groups were co-administered: (1) decitabine (DAC) at 5 mg/kg SC, once daily, for 5 days, and (2) test compound 67 at one of six doses (0.3 mg/kg PO, 1 mg/kg PO, 3 mg/kg PO, 10 mg/kg PO, 30 mg/kg PO, 100 mg/kg PO) once daily, for 5 days. Two additional groups were administered (1) decitabine and test compound vehicle control SC+PO, once daily, for 5 days, and (2) decitabine at 5 mg/kg SC, once daily, for 5 days. […]
Tumors were harvested 4 h post-last dose administered on day 5, grinded in PBS at 50 Hz for 5 min, kept on ice for 30 min while being vortexed every 5 min. […] Equal amounts of proteins were added to 96-well black plates, and luciferase signal was measured using the QUANTI-Luc™ detection medium according to manufacturer's instructions. Luminescence was measured using the EnVision® 2105 Multimode Plate Reader.
Experimental results are depicted in FIG. 9. […] In FIG. 9, IFN signal was measured in tumors harvested from mice 4 hours after the final decitabine and test compound dosing on day 5.

Row | IC50 [2] | SMILES | cytotoxicity, concentration [1] | inhibition of DAC-induced IFN signal in THP1 tumors [3]
1 | ≤ 50 nM | Nc1nc(=O)n([C@H]2C[C@H](O)[C@](CO)(CCl)O2)cc1F [Compound 14, 4-amino-1-((2R,4S,5R)-5-(chloromethyl)-4-hydroxy-5-(hydroxymethyl)tetrahydrofuran-2-yl)-5-fluoropyrimidin-2(1H)-one] | ≥ 30 µM | 
2 | ≤ 50 nM | Nc1nc(=O)n([C@@H]2O[C@@](CO)(CCl)[C@@H](O)[C@@H]2F)cc1F [Compound 67, 4-amino-1-[(2R,3S,4R,5R)-5-(chloromethyl)-3-fluoro-4-hydroxy-5-(hydroxymethyl)oxolan-2-yl]-5-fluoropyrimidin-2-one] |  | dose-response inhibition of DAC-induced IFN signal

Source: patent US20230295212A1 (ROME Therapeutics, Inc., priority 2022, published 2023)
